Test results: patent US20250197420A1, “MACROCYCLIC COMPOUNDS, COMPOSITIONS, AND METHODS OF USING THEREOF” (Sionna Therapeutics Inc., priority 2022, published 2025)

Target: T1, Purified recombinant NBD1 (Homo sapiens, UniProt P13569)
T1 construct: Purified recombinant NBD1 was produced using previously described methods; made in house
Experiment: Aggregation analysis using differential static light scattering (DSLS): thermal stability of NBD1
Format: binding
Conditions: NBD1 0.2 mg/ml; Tagg of compound well minus average Tagg of DMSO control wells
Procedure: Purified recombinant NBD1 was produced using previously described methods (A. Schmidt, J. L. Mendoza, P. J. Thomas (2011) Biochemical and Biophysical Approaches to Probe CFTR Structure (365-376) M. D. Amaral, K. Kunzelmann (eds.), Cystic Fibrosis, Methods in Molecular Biology 741, Springer Science+Business Media). The effect of test compounds on thermal stability of NBD1 was evaluated by differential static light scattering (DSLS) using the Harbinger Stargazer-384 instrument (Epiphyte Three, Toronto, Canada). Test compounds were dissolved and diluted to desired concentrations in 100% DMSO. The compounds or DMSO controls (100 nL) were stamped into wells of a […] low volume optical plate (Corning Inc., Corning, NY) using the Echo 555 acoustic liquid handler (Labcyte Inc., San Jose, CA).
NBD1 protein was diluted to 0.2 mg/ml in S200 buffer (50 mM Tris-HCl, 150 mM NaCl, 5 mM MgCl2, 2 mM ATP, 2 mM DTT, pH7.6) containing 1% glycerol. 10 uL of protein solution was aliquoted into the 384-well plate harboring the test compounds and 10 uL mineral oil was overlaid onto the protein solution, using the epMotion robotic liquid handler (Eppendorf North America, Hauppauge, NY). After placing into the Stargazer instrument, the plate was heated at 1° C. per minute to 70° C. Images were captured from 25° C. to 70° C. every 0.5° C. At the end of the experiment run, instrument software integrated image files and analyzed data automatically. A […] regression curve was generated for each well, representing the increase in light scattering over time. A temperature of aggregation (Tagg) was calculated based on the inflection point of the curve. To better compare data across experiments the average Tagg for DMSO control wells was calculated and subtracted from values for wells containing compounds to obtain a “ΔTagg” value. These ΔTagg values reflect stabilizing efficacy of the compounds. As set forth in Table 2 below, an ΔTagg value less than or equal to 5° C. is marked “A”; a value above 5° C. and less than or equal to 10° C. is marked “B”; a value greater than 10° C. and less than or equal to 25° C. is marked “C”.

T1 sequence (P13569 423-646 limits assumed): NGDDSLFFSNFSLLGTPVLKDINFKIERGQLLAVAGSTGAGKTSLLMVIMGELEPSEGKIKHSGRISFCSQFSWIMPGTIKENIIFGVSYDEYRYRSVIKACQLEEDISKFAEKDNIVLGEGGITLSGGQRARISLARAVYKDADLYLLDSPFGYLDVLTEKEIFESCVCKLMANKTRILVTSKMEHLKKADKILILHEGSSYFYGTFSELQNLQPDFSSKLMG

## CN1CCOCC(C)(c2cccc(CCC(=O)O)c2)c2cnc([nH]2)-c2cc(ccc2F)Oc2c(F)cc3[nH]ccc3c2CCC1=O (stereo not drawn) [Compound 19, 3-[3-(22,28-Difluoro-6,11-dimethyl-12-oxo-8,24-dioxa-3,11,19,30-tetrazapentacyclo[23.3.1.12,5.015,23.016,20]triaconta-1(29),2,4,15,17,20,22,25,27-nonaen-6-yl)phenyl]propanoic acid]
  DSLS (ΔTagg): C (a value greater than 10 °C and less than or equal to 25 °C is marked “C”)

## CC(CC(=O)O)c1cccc(C2CCCCCN(C)C(=O)CCc3c(c(F)cc4[nH]ccc34)Oc3ccc(F)c(c3)-c3ncc2[nH]3)c1 (stereo not drawn) [Compound 21, 3-[3-(23,29-Difluoro-12-methyl-13-oxo-25-oxa-3,12,20,31-tetrazapentacyclo[24.3.1.12,5.016,24.017,21]hentriaconta-1(30),2,4,16,18,21,23,26,28-nonaen-6-yl)phenyl]butanoic acid]
  DSLS (ΔTagg): C (a value greater than 10 °C and less than or equal to 25 °C is marked “C”)

## CC(Cc1cccc(C2CCCCCN(C)C(=O)CCc3c(c(F)cc4[nH]ccc34)Oc3ccc(F)c(c3)-c3ncc2[nH]3)c1)C(=O)O (stereo not drawn) [Compound 22, 3-[3-(23,29-Difluoro-12-methyl-13-oxo-25-oxa-3,12,20,31-tetrazapentacyclo[24.3.1.12,5.016,24.017,21]hentriaconta-1(30),2,4,16,18,21,23,26,28-nonaen-6-yl)phenyl]-2-methyl-propanoic acid]
  DSLS (ΔTagg): C (a value greater than 10 °C and less than or equal to 25 °C is marked “C”)

## CC1CNC(=O)CCc2c(c(F)cc3[nH]ccc23)Oc2ccc(F)c(c2)-c2ncc([nH]2)C(C)(c2cccc(CCC(=O)O)c2)COC1 (stereo not drawn) [Compound 23, 3-[3-(23,29-Difluoro-6,10-dimethyl-13-oxo-8,25-dioxa-3,12,20,31-tetrazapentacyclo[24.3.1.12,5.016,24.017,21]hentriaconta-1(30),2,4,16,18,21,23,26,28-nonaen-6-yl)phenyl]propanoic acid]
  DSLS (ΔTagg): C (a value greater than 10 °C and less than or equal to 25 °C is marked “C”)

## CC1(c2cccc(CCC(=O)O)c2)CCC(=O)NCCCCc2c(c(F)cc3[nH]ccc23)Oc2ccc(F)c(c2)-c2ncc1[nH]2 (stereo not drawn) [Compound 24, 3-[3-(22,28-Difluoro-6-methyl-9-oxo-24-oxa-3,10,19,30-tetrazapentacyclo[23.3.1.12,5.015,23.016,20]triaconta-1(29),2,4,15,17,20,22,25,27-nonaen-6-yl)phenyl]propanoic acid]
  DSLS (ΔTagg): C (a value greater than 10 °C and less than or equal to 25 °C is marked “C”)

## CC1(c2ccccc2)CCC(=O)NCCCCc2c(c(F)cc3[nH]ccc23)Oc2ccc(F)c(c2)-c2ncc1[nH]2 (stereo not drawn) [Compound 25, 22,28-Difluoro-6-methyl-6-phenyl-24-oxa-3,10,19,30-tetrazapentacyclo[23.3.1.12,5.015,23.016,20]triaconta-1(29),2,4,15,17,20,22,25,27-nonaen-9-one]
  DSLS (ΔTagg): B (a value above 5 °C and less than or equal to 10 °C is marked “B”)

## CC1(C)CCC(c2cccc(CCC(=O)O)c2F)c2cnc([nH]2)-c2cc(ccc2F)Oc2c(F)cc3[nH]ccc3c2CCC(=O)NC1 (stereo not drawn) [Compound 32, 3-[3-(22,28-Difluoro-9,9-dimethyl-12-oxo-24-oxa-3,11,19,30-tetrazapentacyclo[23.3.1.12,5.015,23.016,20]triaconta-1(29),2,4,15,17,20,22,25,27-nonaen-6-yl)-2-fluoro-phenyl]propanoic acid]
  DSLS (ΔTagg): B (a value above 5 °C and less than or equal to 10 °C is marked “B”)

## [2H]C([2H])([2H])n1nc2nc1-c1cc(ccc1F)Oc1c(F)cc3[nH]ccc3c1CCC(=O)N(C)CC(C)(C)CCCC2(C)c1cccc(CCCO)c1 (stereo not drawn) [Compound 78, 23,29-difluoro-6-[3-(3-hydroxypropyl)phenyl]-6,10,10,12-tetramethyl-3-(trideuteriomethyl)-25-oxa-3,4,12,20,31-pentazapentacyclo-[24.3.1.12,5.016,24.017,21]hentriaconta-1(30),2(31),4,16,18,21,23,26,28-nonaen-13-one]
  DSLS (ΔTagg): A (an ΔTagg value less than or equal to 5 °C is marked “A”)

## O=C(O)CCc1cccc(C2CCCCOC(=O)NCCc3c(c(F)cc4[nH]ccc34)Oc3ccc(F)c(c3)-c3ncc2[nH]3)c1F (stereo not drawn) [Compound 81, 3-[3-(23,29-Difluoro-12-oxo-11,25-dioxa-3,13,20,31-tetrazapentacyclo[24.3.1.12,5.016,24.017,21]hentriaconta-1(30),2,4,16(24),17(21),18,22,26,28-nonaen-6-yl)-2-fluoro-phenyl]propanoic acid]
  DSLS (ΔTagg): C (a value greater than 10 °C and less than or equal to 25 °C is marked “C”)

## O=C1NCCc2c(c(F)cc3[nH]ccc23)Oc2ccc(F)c(c2)-c2ncc([nH]2)C(c2ccccc2F)CCCCO1 (stereo not drawn) [Compound 82, 23,29-Difluoro-6-(2-fluorophenyl)-11,25-dioxa-3,13,20,31-tetrazapentacyclo[24.3.1.12,5.016,24.017,21]hentriaconta-1(30),2,4,16(24),17(21),18,22,26,28-nonaen-12-one]
  DSLS (ΔTagg): A (an ΔTagg value less than or equal to 5 °C is marked “A”)

## CN1CC(O)CCCC(C)(c2cccc(CCC(=O)O)c2)c2cnc([nH]2)-c2cc(ccc2F)Oc2c(F)cc3[nH]ccc3c2CCC1=O (stereo not drawn) [Compound 104, 3-[3-(23,29-Difluoro-10-hydroxy-6,12-dimethyl-13-oxo-25-oxa-3,12,20,31-tetrazapentacyclo[24.3.1.12,5.016,24.017,21]hentriaconta-1(30),2,4,16,18,21,23,26,28-nonaen-6-yl)phenyl]propanoic acid]
  DSLS (ΔTagg): C (a value greater than 10 °C and less than or equal to 25 °C is marked “C”)

## CN1CC(=O)CCCC(C)(c2cccc(CCC(=O)O)c2)c2cnc([nH]2)-c2cc(ccc2F)Oc2c(F)cc3[nH]ccc3c2CCC1=O (stereo not drawn) [Compound 105, 3-[3-(23,29-Difluoro-6,12-dimethyl-10,13-dioxo-25-oxa-3,12,20,31-tetrazapentacyclo[24.3.1.12,5.016,24.017,21]hentriaconta-1(30),2,4,16,18,21,23,26,28-nonaen-6-yl)phenyl]propanoic acid]
  DSLS (ΔTagg): C (a value greater than 10 °C and less than or equal to 25 °C is marked “C”)
